Laboratory results from ChEMBL document CHEMBL1133882, “Benzyloxybenzaldehyde analogues as novel adenylyl cyclase activators” (Bioorg Med Chem Lett, 2001).

Assays:
Format in all cases: functional
[1] = tested on: Rattus norvegicus; test: In vitro inhibitory effect on neutrophil superoxide formation isolated from pentobarbital-anesthetized rats
[2] = Ratio of cAMP-elevating activity relative to forskolin
[3] = molecular target: Adenylate cyclase (Homo sapiens) (UniProt Q8NFM4+O60503+Q08828+P40145+O60266+O95622+O43306+Q08462+P51828); test: Effect of compound on cellular c-AMP levels by activation of Adenylate cyclase

| IC50 [1] [µM] | Activity (pM (2*10e6*cells)-1) [3] | Structure (SMILES) | Ratio [2] |
| --- | --- | --- | --- |
| 19.8 | 0.29 | NC(=O)c1ccccc1OCc1ccccc1 | 0.24 |
| 15.6 | 1.3 | O=Cc1ccccc1OCc1ccccc1 | 1.1 |
| 12.8 | 0.26 | CC(=O)c1ccccc1OCc1ccccc1 | 0.22 |
| > 30 | 0.56 | O=Cc1cccc(OCc2ccccc2)c1 | 0.46 |
| 14.7 | – | CN1CCN(CCCN2c3ccccc3Sc3ccc(C(F)(F)F)cc32)CC1 [TRIFLUOPERAZINE] | – |
| – | < 1.23 | C=C[C@@]1(C)CC(=O)[C@]2(O)[C@@]3(C)[C@@H](O)CCC(C)(C)[C@@H]3[C@H](O)[C@H](OC(C)=O)[C@@]2(C)O1 | 1 |
| 14.8 | 0.26 | O=Cc1ccc(OCc2ccccc2)cc1 | 0.22 |
